From patent US8344010B2, “Fused imidazole derivatives as TRPV3 antagonist” (Glenmark Pharmaceuticals S.A., priority 2008, dated 2013)
pIC50: −log10 of the molar value.

Target: T1, Human TRPV3 (Homo sapiens, UniProt Q8NET8)
T1 construct: expressed in transfected cells; host or cells: CHO cells (selected with G-418)
T1 sequence (Q8NET8 1-790): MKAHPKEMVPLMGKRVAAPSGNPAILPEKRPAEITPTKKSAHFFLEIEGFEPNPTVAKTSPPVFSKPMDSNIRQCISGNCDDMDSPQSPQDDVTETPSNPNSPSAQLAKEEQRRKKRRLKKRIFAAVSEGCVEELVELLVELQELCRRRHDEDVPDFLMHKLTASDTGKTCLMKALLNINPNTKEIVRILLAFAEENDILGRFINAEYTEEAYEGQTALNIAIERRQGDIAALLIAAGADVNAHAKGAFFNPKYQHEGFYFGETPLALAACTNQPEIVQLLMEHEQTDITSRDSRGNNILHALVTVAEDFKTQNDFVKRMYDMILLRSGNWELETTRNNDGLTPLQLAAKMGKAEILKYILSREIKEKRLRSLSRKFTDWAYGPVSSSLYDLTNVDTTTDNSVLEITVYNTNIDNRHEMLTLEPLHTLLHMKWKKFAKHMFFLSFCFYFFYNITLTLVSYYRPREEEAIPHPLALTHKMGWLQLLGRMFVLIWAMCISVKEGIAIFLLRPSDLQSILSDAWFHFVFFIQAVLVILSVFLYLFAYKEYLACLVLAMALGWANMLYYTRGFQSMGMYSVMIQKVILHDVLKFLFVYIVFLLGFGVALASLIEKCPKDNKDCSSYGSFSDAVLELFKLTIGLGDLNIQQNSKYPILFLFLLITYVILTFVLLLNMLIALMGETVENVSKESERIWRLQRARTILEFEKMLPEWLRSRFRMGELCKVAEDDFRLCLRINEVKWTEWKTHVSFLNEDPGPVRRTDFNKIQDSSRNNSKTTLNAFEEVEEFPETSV
Experiment: 45Calcium uptake assay: inhibition of 2-APB induced cellular uptake of radioactive calcium
Format: cell-based
Details: human TRPV3 expressing CHO cells, 2-APB 500 μM; for inhibition at 1 µM: 1 μM test compound, read-out: Percentage Inhibition (1 μM); for inhibition at 10 µM: 10 μM test compound, read-out: Percentage Inhibition (10 μM); for pIC50: class symbol
Text: The illustrative examples of the present invention are screened for TRPV3 activity according to a modified procedure described in Tóth, A., Kedei, N., Wang, Y. and Blumberg, P. M. Life Sciences (2003), 73, 487-498. The screening of the compounds can be carried out by other methods and procedures known to a person skilled in the art. Such screening methods may be found in (a) Hu, H.-Z. et al. J. Biol. Chem. (2004), 279, 35741-35747; (b) Smith, G. D. et al. Nature (2002), 418, 186-190; (c) Peier, A. M. et al. Science (2002), 296, 2046-2049.
Screening for TRPV3 antagonist using the ^45Calcium uptake assay The inhibition of TRPV3 receptor activation was followed as inhibition of 2-aminoethoxydiphenylborate (2-APB) induced cellular uptake of radioactive calcium. Test compounds were dissolved in dimethyl sulfoxide (DMSO) to prepare 20 mM stock solution and then diluted using plain medium with DMEM/F-12 containing 1.8 mM CaCl2 to get desired concentration. Final concentration of DMSO in the reaction was 0.5% (v/v). Human TRPV3 expressing CHO cells were grown in DMEM/F-12 medium with 10% FBS, 1% penicillin-streptomycin solution, 400 μg/ml of G-418. Cells were seeded 24 h prior to the assay in 96 well plates so as to get ˜50,000 cells per well on the day of experiment. Cells were treated with test compounds for 10 minutes followed by addition of 2-APB at a final concentration of 500 μM and 5 μCi/ml^45Ca^+2 for 4 minutes. Cells were washed and lysed using buffer containing 1% Triton X-100, 0.1% deoxycholate and 0.1% SDS. Radioactivity in the lysate was measured in Packardt Top count after addition of liquid scintillant. Concentration response curves were plotted as a % of maximal response obtained in the absence of test antagonist. IC50 value was calculated from concentration response curve by nonlinear regression analysis using GraphPad PRISM software.
Percentage inhibition at concentrations of 1.0 μM and 10.0 μM are given in the table along with IC50 details for selected examples.

Row | Compound | inhibition at 1 µM | inhibition at 10 µM | pIC50
1 | COc1cccc(/C=C/c2nc3cc(C)c(C)cc3n2-c2ccc(C#N)cn2)c1OC1CCCC1 [Example 62, 6-{2-[(E)-2-(2-[Cyclopentyloxy]-3-methoxyphenyl)vinyl]-5,6-dimethyl-1H-benzimidazol-1-yl}nicotinonitrile] | 92% | 95.9% | 6.30 to 7.00
2 | COc1cccc(/C=C/c2nc3ccccc3n2-c2ncc(Cl)cc2Cl)c1OCc1ccccc1 [Example 5, 2-[(E)-2-(2-Benzyloxy-3-methoxyphenyl)vinyl]-1-(3,5-dichloropyridin-2-yl)-1H-benzimidazole] | 38.8% | 69.3% | 
3 | COc1cccc(/C=C/c2nc3cc(F)c(F)cc3n2-c2ccc(C(=O)O)nn2)c1OC1CCCC1 [Example 74, 6-{2-[(E)-2-(2-Cyclopentyloxy-3-methoxyphenyl)vinyl]-5,6-difluoro-1H-benzimidazol-1-yl}pyridazine-3-carboxylic acid] | 1.7% | 1.51% | 
4 | N#Cc1ccc(-n2c(/C=C/c3cccc(OC(F)F)c3OC3CCCC3)nc3cc(F)c(F)cc32)nc1 [Example 84, 6-(2-{(E)-2-[2-(Cyclopentyloxy)-3-difluoromethoxyphenyl-]vinyl}-5,6-difluoro-1H-benzimidazol-1-yl)nicotinonitrile] | 98.4% | 99.3% | > 7.30
5 | FC(F)Oc1cccc(/C=C/c2nc3cccnc3n2-c2ccc(OC(F)(F)F)cc2)c1OCC1CCC1 [Example 100, 2-{(E)-2-[2-Cylobutylmethoxy-3-(difluoromethoxy)phenyl]vinyl}-3-[4-(trifluoromethoxy)phenyl]-3H-imidazo[4,5-b]pyridine] | 66.3% | 94.9% | 
6 | COc1cccc(/C=C/c2nc3cc(F)c(F)cc3n2-c2ncccc2C#N)c1OC1CCCC1 [Example 61, 2-{2-[(E)-2-(2-Cyclopentyloxy-3-methoxyphenyl)vinyl]-5,6-difluoro-1H-benzimidazol-1-yl}nicotinonitrile] | 44.8% | 96% | 
7 | CCCCCOc1c(/C=C/c2nc3cc(Cl)cnc3n2-c2ccc(C#N)cn2)cccc1OC(F)F [Example 101, 6-(6-Chloro-2-{(E)-2-[3-(difluoromethoxy)-2-pentyloxyphenyl]vinyl}-3H-imidazo[4,5-b]pyridin-3-yl)nicotinonitrile] | 30.3% | 85.2% | 
8 | CCC(CC)Oc1c(/C=C/c2nc3ccccc3n2-c2ncc(Br)cn2)cccc1OC [Example 22, 1-(5-Bromopyrimidin-2-yl)-2-{(E)-2-[2-(1-ethylpropoxy)-3-methoxyphenyl]vinyl}-1H-benzimidazole] | 70.6% | 89.2% | 6.30 to 7.00
9 | CCCCCOc1c(/C=C/c2nc3cc(F)c(F)cc3n2-c2ccc(C#N)cn2)cccc1OC [Example 65, 6-{5,6-Difluoro-2-[(E)-2-(2-pentoxy-3-methoxyphenyl)vinyl]-1H-benzimidazol-1-yl}nicotinonitrile] | 94.9% | 97.4% | 7.00 to 7.30
10 | CCCCCOc1c(/C=C/c2nc3cccnc3n2-c2ccc(C#N)cn2)cccc1OC [Example 87, 6-{2-[(E)-2-(2-Pentyloxy-3-methoxyphenyl)vinyl]-3H-imidazo[4,5-b]pyridin-3-yl}nicotinonitrile] | 95.7% | 99.1% | 6.30 to 7.00

The remaining lines, values ahead:

Row | inhibition at 1 µM | inhibition at 10 µM | pIC50 | Compound
11 | 76.8% | 94.2% | 6.30 to 7.00 | COc1cccc(/C=C/c2nc3ccccc3n2-c2ccc(C#N)cc2F)c1OCC1CC1 [Example 39, 4-{2-[(E)-2-(2-Cyclopropylmethoxy-3-methoxyphenyl)vinyl]-1H-benzimidazol-1-yl}-3-fluorobenzonitrile]
12 | 96% | 99.2% | 7.00 to 7.30 | N#Cc1ccc(-n2c(/C=C/c3cccc(OC(F)F)c3OCC3CCC3)nc3cccnc32)nc1 [Example 97, 6-(2-{(E)-2-[2-(Cyclobutylmethoxy)-3-difluoromethoxyphenyl]vinyl}-3H-imidazo[4,5-b]pyridin-3-yl)nicotinonitrile]
13 | 48.7% | 98.3% |  | COc1cccc(/C=C/c2nc3cnccc3n2-c2ccc(C#N)cn2)c1OC1CCCC1 [Example 104, 6-{2-[(E)-2-(2-[Cyclopentyloxy]-3-methoxyphenyl)vinyl]-1H-imidazo[4,5-c]pyridin-1-yl}nicotinonitrile]
14 | 60% | 87.1% |  | COc1cccc(/C=C/c2nc3ccccc3n2Cc2ccc(C#N)cc2)c1OCc1ccccc1F [Example 44, 4-({2-[(E)-2-(2-{2-Fluorobenzyloxy}-3-methoxyphenyl)vinyl]-1H-benzimidazol-1-yl}methyl)benzonitrile]
15 | 96.2% | 97.8% | 7.00 to 7.30 | COc1ccc2nc(/C=C/c3cccc(OC)c3OC3CCCC3)n(-c3ccc(C#N)cn3)c2c1 [Example 51, 6-{2-[(E)-2-(2-Cyclopentyloxy-3-methoxyphenyl)vinyl]-6-methoxy-1H-benzimidazol-1-yl}nicotinonitrile]
16 | 95.5% | 99% | > 7.30 | COc1cccc(/C=C/c2nc3cc(F)c(F)cc3n2-c2ccc(C#N)cn2)c1OCC1CCC1 [Example 67]
17 | 12.8% | 78.5% |  | COc1cccc(/C=C/c2nc3ccccc3n2-c2ccccn2)c1OCC1CC1 [Example 1, 2-{(E)-2-[2-(Cyclopropylmethoxy)-3-methoxyphenyl]vinyl}-1-pyridin-2-yl-1H-benzimidazole]
18 | 13% | 81.9% |  | COc1cccc(/C=C/c2nc3ccccc3n2-c2ncccn2)c1OC1CCCC1 [Example 21]
19 | 93% | 96.1% | 6.30 to 7.00 | COc1cccc(/C=C/c2nc3cc(C(F)(F)F)ccc3n2-c2ccc(C#N)cn2)c1OC1CCCC1 [Example 57, 6-{2-[(E)-2-(2-[Cyclopentyloxy]-3-methoxyphenyl)vinyl]-5-(trifluoromethyl)-1H-benzimidazol-1-yl}nicotinonitrile]
20 | 43.4% | 83.8% |  | COc1cccc(/C=C/c2nc3ccccc3n2-c2cccs2)c1OCC1CC1 [Example 45, 2-[(E)-2-(2-Cylopropymethoxy-3-methoxyphenyl)]-1-(2-thienyl)-1H-benzimidazole]
21 | 80.8% | 97.7% | 6.30 to 7.00 | CCOc1c(/C=C/c2nc3cc(F)c(F)cc3n2-c2ccc(C#N)cn2)cccc1OC [Example 63, 6-{2-[(E)-2-(2-Ethoxy-3-methoxyphenyl)vinyl]-5,6-difluoro-1H-benzimidazol-1-yl}nicotinonitrile]
22 | 78.2% | 95.3% | 6.30 to 7.00 | COc1cccc(/C=C/c2nc3ccccc3n2-c2ccc(C#N)cc2)c1OCC1CC1 [Example 33, 4-{2-[(E)-2-(2-Cyclopropylmethoxy-3-methoxyphenyl)vinyl]-1H-benzimidazol-1-yl}benzonitrile]
23 | 96.2% | 98.1% | 7.00 to 7.30 | COc1cccc(/C=C/c2nc3cc(F)c(Cl)cc3n2-c2ccc(C#N)cn2)c1OC1CCCC1 [Example 70, 6-{6-Chloro-2-[(E)-2-(2-[cyclopentyloxy]-3-methoxyphenyl)vinyl]-5-fluoro-1H-benzimidazol-1-yl}nicotinonitrile]
